Results reported in US8586591B2, “Aminopyrazine derivative and medicine” (Nippon Shinyaku Co., Ltd., priority 2009, dated 2013).
Structures can show the parent of a compound that is named as a salt.

Legend:
[1] = biological target: T1, JAK3 tyrosine kinase (Homo sapiens, UniProt P52333); assay: Test 1: inhibitory activity to JAK3 tyrosine kinase (ELISA); assay type: biochemical; conditions: 25 μM ATP in substrate solution, 30° C. for 1 hour, n=2
T1 construct: purchased Carnabioscience Co
T1 sequence (P52333 1-1124): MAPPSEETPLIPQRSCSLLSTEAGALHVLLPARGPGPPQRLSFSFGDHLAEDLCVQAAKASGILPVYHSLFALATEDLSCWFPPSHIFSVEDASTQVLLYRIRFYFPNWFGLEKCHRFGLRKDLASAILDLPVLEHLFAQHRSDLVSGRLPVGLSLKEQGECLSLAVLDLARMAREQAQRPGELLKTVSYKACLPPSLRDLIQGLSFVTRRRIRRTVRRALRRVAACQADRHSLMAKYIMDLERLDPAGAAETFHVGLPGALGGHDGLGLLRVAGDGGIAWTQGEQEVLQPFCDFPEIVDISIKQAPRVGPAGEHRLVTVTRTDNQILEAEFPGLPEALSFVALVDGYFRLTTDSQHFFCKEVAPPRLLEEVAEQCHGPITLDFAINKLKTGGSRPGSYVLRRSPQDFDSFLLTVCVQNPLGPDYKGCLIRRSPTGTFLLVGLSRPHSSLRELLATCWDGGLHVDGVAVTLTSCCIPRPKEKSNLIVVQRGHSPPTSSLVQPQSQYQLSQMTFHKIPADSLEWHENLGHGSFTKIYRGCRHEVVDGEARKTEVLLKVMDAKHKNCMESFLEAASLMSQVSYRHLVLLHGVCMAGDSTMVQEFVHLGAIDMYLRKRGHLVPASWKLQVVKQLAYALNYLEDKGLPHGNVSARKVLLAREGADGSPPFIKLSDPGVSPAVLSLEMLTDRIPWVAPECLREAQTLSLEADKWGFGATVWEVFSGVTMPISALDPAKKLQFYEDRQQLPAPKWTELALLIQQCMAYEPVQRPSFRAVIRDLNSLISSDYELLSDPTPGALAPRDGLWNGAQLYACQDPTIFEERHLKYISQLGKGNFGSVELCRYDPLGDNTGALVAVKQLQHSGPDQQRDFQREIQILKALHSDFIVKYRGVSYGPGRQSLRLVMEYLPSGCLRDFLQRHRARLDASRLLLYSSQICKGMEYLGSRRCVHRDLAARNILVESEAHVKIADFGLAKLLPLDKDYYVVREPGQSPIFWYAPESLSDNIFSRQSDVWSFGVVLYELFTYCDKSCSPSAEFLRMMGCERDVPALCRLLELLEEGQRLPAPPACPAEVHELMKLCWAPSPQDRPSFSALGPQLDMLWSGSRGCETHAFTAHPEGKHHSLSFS
Experimental: Test 1: Test for inhibitory activity to JAK2 and JAK3 tyrosine kinase 1. […] The test material was dissolved in dimethylsulfoxide (DMSO) to be 10 mM, and further diluted with DMSO to be 100-fold concentrations for measurement (1000, 300, 100, 30, 10, 3, 1, 0.3, 0.1, 0.03, 0.01 μM). In addition, solutions diluted with an assay buffer up to 20 times were used as solutions of the test material. As a negative control, a solution of DMSO diluted 20 times with an assay buffer was used. […] 2. Measurement of the Activities of JAK2 and JAK3 Tyrosine Kinases The activity was determined by ELISA. […] The absorbance was measured by means of a micro-plate reader (BIO-RAD; Model 3550) at 450 nm. 3. Analysis of the Results of the Measurement The measured absorbance was subjected to a non-linear regression analysis by means of a SAS system (SAS Institute Inc.), and the concentration (IC50) of the test material which inhibited 50% of the activity of each tyrosine kinase was estimated.

[2] = biological target: T2, JAK2 tyrosine kinase (Homo sapiens, UniProt O60674); assay: Test 1: inhibitory activity to JAK2 tyrosine kinase (ELISA); assay type: biochemical; conditions: 25 μM ATP in substrate solution, 30° C. for 1 hour, n=2
T2 construct: purchased Carnabioscience Co
Experimental: Test 1: Test for inhibitory activity to JAK2 and JAK3 tyrosine kinase 1. Preparation of Test Material
The test material was dissolved in dimethylsulfoxide (DMSO) to be 10 mM, and further diluted with DMSO to be 100-fold concentrations for measurement (1000, 300, 100, 30, 10, 3, 1, 0.3, 0.1, 0.03, 0.01 μM). In addition, solutions diluted with an assay buffer up to 20 times were used as solutions of the test material. As a negative control, a solution of DMSO diluted 20 times with an assay buffer was used. As the assay buffer, 15 mM Tris-Cl (pH 7.5), 0.01 v/v % Tween-20, and 1 mM dithiothreitol were used.
2. Measurement of the Activities of JAK2 and JAK3 Tyrosine Kinases
The activity was determined by ELISA. The solution of the test material (10 μl each; n=2) was placed in a streptavidine-coated 96 well plate (DELFIA Strip Plate 8×12 wells; Perkin Elmer), to which 20 μl each of substrate solution (625 nM biotin-labeled peptide substrate, 25 μM ATP, 25 mM MgCl2, 15 mM Tris-Cl (pH 7.5), 0.01 v/v % Tween-20, and 1 mM dithiothreitol), was added and stirred. Finally, 20 μl each of JAK2 tyrosine kinase (Carnabioscience Co.) (diluted to 0.75 nM with assay buffer) or JAK3 tyrosine kinase (Carnabioscience Co.) (diluted to 0.75 nM with assay buffer) was added, stirred and allowed to stand at 30° C. for 1 hour. The plate was washed 4 times with a washing buffer (50 mM Tris-Cl, pH 7.5, 150 mM NaCl, 0.02 v/v % Tween-20), and then a blocking buffer (0.1% Bovine Serum Albumin, 50 mM Tris-Cl, pH 7.5, 150 mM NaCl, 0.02 v/v % Tween-20)(150 μl each) was added for blocking at 30° C. for 30 minutes. Blocking buffer was removed, and there was added 100 μl each of horse radish peroxidase-labeled anti-phosphorylated tyrosin kinase antibody (BD Bioscience Co.) (diluted 10,000 times with blocking buffer). The plate was incubated at 30° C. for 30 minutes and then washed 4 times with a washing buffer, and 100 μl each of 3,3′,5,5′-tetramethylbenzidine (Sigma-Aldrich Co.) was added to develop color for 10 minutes. 0.1 M sulfuric acid (100 μl each) was added to stop the reaction. The absorbance was measured by means of a micro-plate reader (BIO-RAD; Model 3550) at 450 nm.
3. Analysis of the Results of the Measurement
The measured absorbance was subjected to a non-linear regression analysis by means of a SAS system (SAS Institute Inc.), and the concentration (IC50) of the test material which inhibited 50% of the activity of each tyrosine kinase was estimated.

T2 sequence (O60674 whole entry): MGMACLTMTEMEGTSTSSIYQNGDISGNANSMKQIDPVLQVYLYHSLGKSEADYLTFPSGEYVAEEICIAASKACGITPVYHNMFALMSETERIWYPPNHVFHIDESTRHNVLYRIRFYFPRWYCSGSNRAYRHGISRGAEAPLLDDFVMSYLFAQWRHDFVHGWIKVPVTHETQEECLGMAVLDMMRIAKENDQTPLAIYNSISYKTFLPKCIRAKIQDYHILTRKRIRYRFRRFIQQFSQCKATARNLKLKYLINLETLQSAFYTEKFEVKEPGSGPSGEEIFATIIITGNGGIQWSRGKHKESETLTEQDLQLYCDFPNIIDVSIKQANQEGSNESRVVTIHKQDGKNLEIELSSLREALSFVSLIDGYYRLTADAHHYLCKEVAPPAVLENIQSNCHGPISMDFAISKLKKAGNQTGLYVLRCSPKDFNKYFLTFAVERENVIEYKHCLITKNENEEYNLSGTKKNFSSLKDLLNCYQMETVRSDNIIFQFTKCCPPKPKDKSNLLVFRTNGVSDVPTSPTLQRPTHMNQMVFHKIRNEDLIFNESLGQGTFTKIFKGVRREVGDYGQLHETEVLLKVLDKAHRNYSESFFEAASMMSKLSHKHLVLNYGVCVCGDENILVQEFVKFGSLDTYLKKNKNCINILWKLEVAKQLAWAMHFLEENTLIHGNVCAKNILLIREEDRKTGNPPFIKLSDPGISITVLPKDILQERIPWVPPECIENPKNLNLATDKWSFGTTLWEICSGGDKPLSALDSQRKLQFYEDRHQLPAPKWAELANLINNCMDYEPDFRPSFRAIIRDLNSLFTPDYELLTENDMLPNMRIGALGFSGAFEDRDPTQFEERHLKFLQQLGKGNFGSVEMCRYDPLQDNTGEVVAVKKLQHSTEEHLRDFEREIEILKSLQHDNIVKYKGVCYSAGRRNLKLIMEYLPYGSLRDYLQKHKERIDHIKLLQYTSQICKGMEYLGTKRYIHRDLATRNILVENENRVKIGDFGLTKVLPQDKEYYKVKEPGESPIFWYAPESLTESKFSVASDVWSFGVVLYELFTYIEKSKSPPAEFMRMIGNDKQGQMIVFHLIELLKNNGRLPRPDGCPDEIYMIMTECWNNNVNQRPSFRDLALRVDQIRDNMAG

| Structure (SMILES) | IC50 [1] | IC50 [2] |
| --- | --- | --- |
| C[C@H](Nc1nc(Nc2cnccn2)cc(O[C@H]2CCCC[C@@H]2O)n1)c1ccc(F)cc1 [Example 101, (1S,2S)-2-{2-[(S)-1-(4-Fluorophenyl)ethylamino]-6-(pyrazin-2-ylamino)pyrimidin-4-yloxy}cyclohexanol hydrochloride] | 600 nM | 11 nM |
| Cc1cnc(Nc2cc(-c3cnn(C)c3)cc(N[C@@H](C)c3ccc(F)cc3)n2)cn1 [Example 214, (S)—N^2-[1-(4-Fluorophenyl)ethyl]-4-(1-methyl-1H-pyrazol-4-yl)-N^6-(5-methylpyrazin-2-yl)pyridine-2,6-diamine] | 380 nM | 5.5 nM |
| CCn1cc(-c2cc(Nc3cnccn3)nc(N[C@@H](C)c3ccc(F)cc3)c2)cn1 [Example 46, (S)-4-(1-Ethyl-1H-pyrazol-4-yl)-N^2-[1-(4-fluorophenyl)ethyl]-N^6-(pyrazin-2-yl)pyridine-2,6-diamine] | 93 nM | 3.7 nM |
| C[C@H](Nc1cc(-c2cnco2)cc(Nc2cnccn2)n1)c1ccc(F)cc1 [Example 8, (S)—N^2-[1-(4-Fluorophenyl)ethyl]-4-(oxazol-5-yl)-N^6-(pyrazin-2-yl)pyridine-2,6-diamine] | 82 nM | 1.1 nM |
| C[C@H](Nc1cc(-c2cnn(CC3CC3)c2)cc(Nc2cnccn2)n1)c1ccc(F)cc1 [Example 48, (S)-4-[1-(Cyclopropylmethyl)-1H-pyrazol-4-yl]-N^2-[1-(4-fluorophenyl)ethyl]-N^6-(pyrazin-2-yl)pyridine-2,6-diamine] | 140 nM | 6 nM |
| C[C@H](Nc1cc(C(=O)NCCO)cc(Nc2cnccn2)n1)c1ccc(F)cc1 [Example 159, (S)-2-[1-(4-Fluorophenyl)ethylamino]-N-(2-hydroxyethyl)-6-(pyrazin-2-ylamino)isonicotinamide] | 170 nM | – |
| CNC(=O)c1cc(Nc2cnccn2)nc(N[C@@H](C)c2ccc(F)cc2)c1 [Example 160, (S)-2-[1-(4-Fluorophenyl)ethylamino]-N-methyl-6-(pyrazin-2-ylamino)isonicotinamide] | 100 nM | – |
| C[C@H](Nc1cc(C(=O)NCCN(C)C)cc(Nc2cnccn2)n1)c1ccc(F)cc1 [Example 150, (S)—N-[2-(Dimethylamino)ethyl]-2-[1-(4-fluorophenyl)ethylamino]-6-(pyrazin-2-ylamino)isonicotinamide] | 150 nM | – |
| COCCOc1cc(Nc2cnccn2)nc(N[C@@H](C)c2ccc(F)cc2)c1 [Example 142, (S)—N^2-[1-(4-Fluorophenyl)ethyl]-4-(2-methoxyethoxy)-N^6-(pyrazin-2-yl)pyridine-2,6-diamine hydrochloride] | 66 nM | – |
| C[C@H](Nc1cc(Nc2ncccn2)cc(Nc2cnccn2)n1)c1ccc(F)cc1 [Example 131, (S)—N^2-[1-(4-Fluorophenyl)ethyl]-N^6-(pyrazin-2-yl)-N^4-(pyrimidin-2-yl)pyridine-2,4,6-triamine] | 180 nM | – |
| C[C@H](Nc1cc(C(=O)NC2CC2)cc(Nc2cnccn2)n1)c1ccc(F)cc1 [Example 163, (S)—N-Cyclopropyl-2-[1-(4-fluorophenyl)ethylamino]-6-(pyrazin-2-ylamino)isonicotinamide] | 170 nM | – |
| C[C@H](Nc1cc(C(=O)N2CCN(S(C)(=O)=O)CC2)cc(Nc2cnccn2)n1)c1ccc(F)cc1 [Example 153, (S)-{2-[1-(4-Fluorophenyl)ethylamino]-6-(pyrazin-2-ylamino)pyridin-4-yl}[4-(methanesulfonyl)piperazin-1-yl]methanone] | 300 nM | – |

Second part, the compound after the results:

| IC50 [1] | IC50 [2] | Structure (SMILES) |
| --- | --- | --- |
| 20 nM | 0.51 nM | C[C@H](Nc1nc(Nc2cnccn2)cc(N2CCC(C(=O)O)CC2)n1)c1ccc(F)cc1 [Example 85, (S)-1-{2-[1-(4-Fluorophenyl)ethylamino]-6-(pyrazin-2-ylamino)pyrimidin-4-yl}piperidine-4-carboxylic acid] |
| 77 nM | 1.7 nM | C[C@H](Nc1nc(Nc2cnccn2)cc(OCC2CCCO2)n1)c1ccc(F)cc1 (stereo partly drawn) [Example 94, N^2-[(S)-1-(4-Fluorophenyl)ethyl]-N^4-(pyrazin-2-yl)-6-[(tetra hydrofuran-2-yl)methoxy]pyrimidine-2,4-diamine] |
| 26 nM | 0.69 nM | C[C@H](Nc1nc(Nc2cnccn2)cc(N2CCNC(C(N)=O)C2)n1)c1ccc(F)cc1 (stereo partly drawn) [Example 58, 4-{2-[(S)-1-(4-Fluorophenyl)ethylamino]-6-(pyrazin-2-ylamino)pyrimidin-4-yl}piperazin-2-carboxamide] |
| 920 nM | – | C[C@H](Nc1cc(-c2ncon2)cc(Nc2cnccn2)n1)c1ccc(F)cc1 [Example 147, (S)—N^2-[1-(4-Fluorophenyl)ethyl]-4-(1,2,4-oxadiazol-3-yl)-N^6-(pyrazin-2-yl)pyridine-2,6-diamine hydrochloride] |
| 1400 nM | – | C[C@H](Nc1nc(Nc2cnccn2)cc(-c2ncon2)n1)c1ccc(F)cc1 [Example 146, (S)—N^2-[1-(4-Fluorophenyl)ethyl]-6-(1,2,4-oxadiazol-3-yl)-N^4-(pyrazin-2-yl)pyrimidine-2,4-diamine hydrochloride] |
| 380 nM | – | C[C@H](Nc1cc(N2CCC(O)CC2)cc(Nc2cnccn2)n1)c1ccc(F)cc1 [Example 129, (S)-1-{2-[1-(4-Fluorophenyl)ethylamino]-6-(pyrazin-2-ylamino)pyridin-4-yl}piperidin-4-ol] |
| – | 0.41 nM | CC(C)C1(O)CN(c2cc(Nc3cnccn3)nc(N[C@@H](C)c3ccc(F)cc3)n2)C1 [Example 201, (S)-1-{2-[1-(4-Fluorophenyl)ethylamino]-6-(pyrazin-2-ylamino)pyrimidin-4-yl}-3-isopropylazetidin-3-ol hydrochloride] |
| – | 0.96 nM | C[C@H](Nc1nc(Nc2cnccn2)cc(N2CC(C(=O)N(C)C)C2)n1)c1ccc(F)cc1 [Example 176, (S)-1-{2-[1-(4-Fluorophenyl)ethylamino]-6-(pyrazin-2-ylamino)pyrimidin-4-yl}-N,N-dimethylazetidin-3-carboxamide] |
